Data set [1] can be described thus: Therapeutic index expressed as the ratio between CC50 and EC50. The format is cell-based. Particulars: human, HEp-2 cells; read-out: Therapeutic index.
In data set [2] the test system is HEp-2. The data set is described as follows: Antiviral activity against respiratory syncytial virus in HEp-2 human […] epithelial carcinoma cell line. The class given is functional, cell-based.
For data set [3], the system named is HEp-2. The data set is described as follows: Cytotoxic activity against uninfected HEp-2 human […] epithelial carcinoma cell line. The class given is functional.

This note sets out measurements from ChEMBL document CHEMBL1147583, “Respiratory syncytial virus inhibitors. Part 2: Benzimidazol-2-one derivatives” (Bioorg Med Chem Lett, 2004).

The EC50 is the concentration that produces a half-maximal response. A high value points to weaker potency. The term CC50 denotes the concentration giving 50% cytotoxicity. Read a high CC50 as lower toxicity to the cells.

Structures are written as SMILES.

Turning to `CC(C)CCn1c(Cn2c(=O)n(Cc3ccc(S(=O)(=O)N(C)C)cc3)c3ccccc32)nc2ccccc21`, the selectivity ratio in data set [1] was above 38200. In the data set with HEp-2 [2], this compound had an EC50 of 4 nM. The cytotoxic concentration (CC50) with HEp-2 [3] is above 153 µM.
